For data set [1], the system named is rat mesangial cell line. Put plainly: TGF-β stimulated 3H-proline incorporation in mesangial cells (Example 5). In kind it is cell-based. To be noted: for inhibition at 3 µM / inhibition at 10 µM / inhibition at 30 µM / inhibition at 1 µM: Rattus norvegicus, Mesangial cell, 5 ng/mL TGF-β1, 44 h, read-out: Mesangial Cell Assay TGF-β % reduction of TGF-β stimulation_proline inc.; for Collagen synthesis: inhibition ranked against tranilast (T) or FT11. The method, then:
(§1) A well-characterized cloned rat mesangial cell line (gift of D Nikolic-Patterson) is cultured in DMEM with FBS, 100 U/mL penicillin, and 100 ug/mL streptomycin in a humidified 5% CO2 atmosphere at 37° C. Cells are plated into 24-well culture dishes in DMEM/10% FBS at low density and allowed to adhere overnight. Cells are used between passages 20 and 40. The subconfluent cells are starved overnight in DMEM/0.1% FBS containing 150 uM L-ascorbic acid, prior to 4 hours of pre-treatment with or without tranilast or the FT compounds, followed by the addition of 5 ng/mL rhTGF-β11 (R&D Systems) and 1 uCi/mL of L-(2,3,4,5-^3H)-proline. Control wells have the compounds but no TGF-β1 added. Cells are incubated for a further 44 hours during which time their appearance is visually monitored. The cells are then washed three times in ice-cold PBS, twice in ice cold 10% TCA and solubilized in 750 uL 1M NaOH for 45 minutes at 37° C. or overnight at 4° C. A 500 uL aliquot is neutralized with 500 uL 1M HCl and 10 mL scintillation fluid (Instagel Plus-Perkin-Elmer) added. Counts are performed on a beta counter.
To normalize the proline incorporation counts to take into account the proliferative effects of TGF-β1, a BioRad protein assay is performed on a 100-150 uL aliquot of the remaining solubilized cells. The sample is neutralized with an equal amount of 1M HCl prior to the assay. The BSA standards used to construct the standard curve have the same amount of 1M NaOH and 1M HCl added as is present in the samples for assay.
Proline incorporation is expressed as cpm/ug protein. In order to compare inter-assay results, the incorporation is expressed as percentage reduction of TGF stimulated proline incorporation, where TGF alone gives 0% reduction and the zero control gives 100% reduction.

The subject of data set [2] is rat mesangial cell line. Put plainly: Effect on mesangial cell appearance (visual monitoring during proline assay). In kind it is cell-based. The method, then:
as §1
Compounds in Bold have Minimal Effect on Cell Appearance and Viability

In the next data set the test system is Mesangial cells. Put plainly: Mesangial cell MTT assay with TGF-β. In kind it is cell-based, rat. To be noted: suppressed = reduced cell viability. The method, then: Mesangial cells are plated at 15000 cells per well into 96-well culture dishes in DMEM/10% FBS and allowed to adhere overnight. The subconfluent cells are starved overnight in DMEM/0.1% FBS, prior to 4 hours of pre-treatment with or without tranilast or the FT compounds. Following the addition of 5 ng/mL rhTGF-β1, the cells are incubated in a humidified 5% CO2 atmosphere at 37° C. for 44 hours. Control wells have the compounds but no TGF-β1 added. The culture medium is removed from each well and 100 uL MTT (0.5 mg/mL) in starve medium is added to each well. The plates are incubated for a further 4 hours at 37° C. The culture medium is then removed and replaced with 100 μL isopropanol and incubated at 37° C. for 20 to 30 minutes, until the blue formazan crystals have dissolved. The absorbance is measured at a wavelength of 570 nm with background subtraction of 690 nm.
Suppressed MTT Result Indicates Reduced Cell Viability

The subject of data set [3] is Neonatal rat cardiac fibroblasts (NCFs). As to the kind of experiment: NCF TGF-β collagen synthesis, 3H-proline incorporation (Example 6). Type of data set: cell-based. As for the experimental part:
Neonatal SD rat cardiac myocytes (NCMs) and fibroblasts (NCFs) were isolated from one-day-old pups with enzymatic digestion as described in detail previously. NCFs were seeded and maintained in high-glucose (25 mmol/L) Dulbecco's modified Eagle's medium (DMEM) (Invitrogen Mount Waverley, Vic, Australia) in the presence of 1% antibiotic/antimycotic (AB/AM) and 10% fetal bovine serum (FBS) (JRH biosciences, Kansas, USA). NCFs were used at passage 2 [31]. Purified NCMs were seeded (1000 cells/mm^2) in 6-well plates and then maintained in serum-free DMEM (Invitrogen, NY, USA) supplemented with insulin and transferrin as described previously (4). Bromodeoxyuridine was included for the first 3 days. 50 mmol/L KCl was added to the medium to prevent spontaneous contraction characteristic of the plated NCMs.
NCFs collagen synthesis assays were performed as described previously. Briefly, NCFs plated at a density of 50,000 cells/well in 12-well plate and incubated overnight. NCFs were then serum starved for 24 hours in high-glucose DMEM. […]
For collagen synthesis, 1 μCi of [^3H]-Proline was added to each well and incubated for further 48 hours before harvest. Cells were harvested by precipitation with 10% TCA on ice for 30 min, before solubilisation with 0.75 mL of 1 mol/L NaOH overnight at 4° C. The samples were then neutralized with 1 mol/L HCl and ^3H level were counted with 10 ml scintillation fluid on a beta-counter to determine [^3H]-proline incorporation.

Each structure is given as a SMILES string. Where only a bound is given, the exact number is not on record here.

As to `COc1ccc(/C=C/C(=O)Nc2ccc(Br)cc2C(=O)O)cc1OC` [Analogue 16, (E)-2-[[3-(3,4-Dimethoxyphenyl)-1-oxo-2-propenyl]amino]-5-bromobenzoic acid], the melting point lay within 210 to 213 °C. Besides, in the data set with rat mesangial cell line [1], the inhibition at 3 µM was around 20%, the inhibition at 10 µM was around 50% and the Collagen synthesis entry is on record as “>>FT11”. Further, the “Effect on mesangial cell appearance” value in the data set with rat mesangial cell line [2] (@ 10 μM) is on record as “lifting off”. Besides, the “Mesangial cell MTT Assay TGF-β” value in the data set with Mesangial cells (@ 30 μM) is “Suppressed”.
As to `C#CCOc1cc(/C=C/C(=O)Nc2ccccc2C(=O)O)ccc1OC` [Analogue 17, (E)-2-[[3-(4-Methoxy-3-propargyloxyphenyl)-1-oxo-2-propenyl]amino]benzoic acid], in the data set on rat mesangial cell line [1], the inhibition at 10 µM was in the range of 20 to 50%, the inhibition at 30 µM was around 55% and the Collagen synthesis result is reported as “>=FT11”. For the same molecule, the “NCF TGF-β Collagen Synthesis” value in data set [3] (@ 30 μM) was around 70% at.
Regarding `COc1ccc(/C=C/C(=O)Nc2ccccc2C(=O)O)cc1OCc1cn(CC(=O)Nc2ccccc2)nn1` [Analogue 21, (E)-2-[[3-(4-Methoxy-3-((1-(2-oxo-2-(phenylamino)ethyl)-1H-1,2,3-triazol-4-yl)methoxy)phenyl)-1-oxo-2-propenyl]amino]benzoic acid], in the data set with rat mesangial cell line [1], the inhibition at 10 µM is around 20%, the inhibition at 30 µM is around 65% and the Collagen synthesis entry is “=FT11”. Moreover, the “Effect on mesangial cell appearance” value in the data set with rat mesangial cell line [2] (@ 100 μM) is on record as “necrotic”. In addition, the “Mesangial cell MTT Assay TGF-β” value in the data set with Mesangial cells (@ 30 μM) is listed as “Suppressed”.
On to `COc1cc(/C=C/C(=O)Nc2ccccc2C(=O)O)ccc1OC1CCCC1` [Analogue 26, (E)-2-{[3-(4-Cyclopentyloxy-3-methoxyphenyl)-1-oxo-2-propenyl]amino}benzoic acid], for which the melting point lay within 96 to 98 °C. In the data set on rat mesangial cell line [1], the inhibition at 1 µM was around 13%, the inhibition at 3 µM amounted to 30%, the inhibition at 10 µM amounted to 85% and the inhibition at 30 µM was determined as 93%. Also, the Collagen synthesis entry with rat mesangial cell line [1] was “>FT11”. Also, in the data set with rat mesangial cell line [2] (@ 30 μM), the “Effect on mesangial cell appearance” value was “sparse”. Moreover, in the data set with rat mesangial cell line [2] (@ 100 μM), the “Effect on mesangial cell appearance” value was “lifting off”. In data set [3] (@ 10 μM), the “NCF TGF-β Collagen Synthesis” value is given as 28% at.
`COc1cc(/C=C/C(=O)Nc2ccccc2C(=O)O)ccc1OC1CCCCC1` [Analogue 27, (E)-2-{[3-(4-Cyclohexyloxy-3-methoxyphenyl)-1-oxo-2-propenyl]amino}benzoic acid] came in with a melting point of 90 to 92 °C. For the same molecule, in the data set with rat mesangial cell line [1], the inhibition at 1 µM is around 18%, the inhibition at 3 µM worked out at 40%, the inhibition at 10 µM is 75 to 90% and the Collagen synthesis entry was “>FT11”. Further, the “Effect on mesangial cell appearance” value with rat mesangial cell line [2] (@ 10 μM) is “Sparse @”. In addition, in the data set with rat mesangial cell line [2] (@ 30 μM), the “Effect on mesangial cell appearance” value is listed as “sick @ 30 μM”. For the same molecule, the “Effect on mesangial cell appearance” value in the data set on rat mesangial cell line [2] (@ 100 μM) is reported as “lifting off”. Besides, the “Mesangial cell MTT Assay TGF-β” value in the data set on Mesangial cells (@ 30 μM) was “Suppressed”.
`COc1cc(/C=C/C(=O)Nc2ccccc2C(=O)O)ccc1OCC1CCCCC1` [Analogue 28, (E)-2-{[3-(4-Cyclohexylmethoxy-3-methoxyphenyl)-1-oxo-2-propenyl]amino}benzoic acid] showed a melting point of 207 to 210 °C. In the data set on rat mesangial cell line [1], the inhibition at 10 µM was around 40%, the inhibition at 30 µM worked out at 173% and the Collagen synthesis entry was “<FT11”. Further, in the data set on rat mesangial cell line [2] (@ 30 μM), the “Effect on mesangial cell appearance” value is “Stressed @”. In addition, in the data set on rat mesangial cell line [2] (@ 100 μM), the “Effect on mesangial cell appearance” value is recorded as “Dead @”. Further, the “Mesangial cell MTT Assay TGF-β” value in the data set with Mesangial cells (@ 10 μM) is reported as “deadly ®”.
In turn, `C#CCCCCOc1ccc(/C=C/C(=O)Nc2ccccc2C(=O)O)cc1OC` [Analogue 33, (E)-2-[[3-(4-(Hex-5-ynyloxy)-3-methoxyphenyl)-1-oxo-2-propenyl]amino]benzoic acid] gave a melting point of 148 to 150 °C. Also, in the data set with rat mesangial cell line [1], the inhibition at 1 µM is around 15%, the inhibition at 3 µM came to 40%, the inhibition at 10 µM turned out to be 60% and the inhibition at 30 µM stood at 80%. For the same molecule, the Collagen synthesis result in the data set with rat mesangial cell line [1] is reported as “>FT11”. In the data set with rat mesangial cell line [2] (@ 30 μM), the “Effect on mesangial cell appearance” value is “Looking bad”. Moreover, the “Mesangial cell MTT Assay TGF-β” value in the data set with Mesangial cells (@ 10 μM) was “Severely”.
`C#CCCCCOc1cc(/C=C/C(=O)Nc2ccccc2C(=O)O)ccc1OC` [Analogue 34, (E)-2-[[3-(3-(Hex-5-ynyloxy)-4-methoxyphenyl)-1-oxo-2-propenyl]amino]benzoic acid] returned a melting point of 135 to 137 °C. In the data set on rat mesangial cell line [1], the inhibition at 10 µM was around 80%, the inhibition at 30 µM came to 94% and the Collagen synthesis entry is “>FT11”. Further, in the data set on rat mesangial cell line [2] (@ 30 μM), the “Effect on mesangial cell appearance” value was “Looking bad”. Further, in the data set with Mesangial cells (@ 30 μM), the “Mesangial cell MTT Assay TGF-β” value is recorded as “Suppressed”.
Regarding `C#CCCCOc1ccc(/C=C/C(=O)Nc2ccccc2C(=O)O)cc1OC` [Analogue 35, (E)-2-[[3-(3-Methoxy-4-(pent-4-ynyloxy)phenyl)-1-oxo-2-propenyl]amino]benzoic acid], the melting point lay within 166.5 to 167.5 °C. In the data set on rat mesangial cell line [1], the inhibition at 3 µM is around 25%, the inhibition at 10 µM stood at 50%, the inhibition at 30 µM lay in the range of 60 to 100% and the Collagen synthesis result is recorded as “=>FT11”. Also, the “Effect on mesangial cell appearance” value in the data set on rat mesangial cell line [2] (@ 30 μM) is given as “Looking bad”. For the same molecule, the “Mesangial cell MTT Assay TGF-β” value with Mesangial cells (@ 10 μM) is listed as “Suppressed”.
On to `C#CCCCOc1cc(/C=C/C(=O)Nc2ccccc2C(=O)O)ccc1OC` [Analogue 36, (E)-2-[[3-(4-Methoxy-3-(pent-4-ynyloxy)phenyl)-1-oxo-2-propenyl]amino]benzoic acid], for which the melting point lay in the range of 154 to 156 °C. For the same molecule, in the data set with rat mesangial cell line [1], the inhibition at 10 µM was around 50%, the inhibition at 30 µM came out at 80% and the Collagen synthesis entry is given as “=>FT11”. Besides, in the data set on Mesangial cells (@ 30 μM), the “Mesangial cell MTT Assay TGF-β” value is “Severely”.
For the molecule `CCCCC#CCCOc1cc(/C=C/C(=O)Nc2ccccc2C(=O)O)ccc1OC` [Analogue 42, (E)-2-[[3-(4-Methoxy-3-(oct-3-ynyloxy)phenyl)-1-oxo-2-propenyl]amino]benzoic acid], the melting point fell in the range of 157 to 158 °C. Besides, the Collagen synthesis entry in the data set with rat mesangial cell line [1] is reported as “Toxic”. Further, the “Effect on mesangial cell appearance” value in the data set on rat mesangial cell line [2] (@ all concentrations) was “Cells damaged @”.
Consider `CCC(CC)Oc1ccc(/C=C/C(=O)Nc2ccccc2C(=O)O)cc1OC` [Analogue 45, (E)-2-[[3-(3-Methoxy-4-(pent-3-yloxy)phenyl)-1-oxo-2-propenyl]amino]benzoic acid], for which the melting point was 82 to 85 °C. For the same molecule, in the data set with rat mesangial cell line [1], the inhibition at 10 µM stood at 80%, the inhibition at 30 µM worked out at 142% and the Collagen synthesis entry was “>FT11”. Also, the “Effect on mesangial cell appearance” value in the data set with rat mesangial cell line [2] (@ 100 μM) was “Cells damaged”.

For the origin of these results see US9561201B2, “Therapeutic compounds” (Fibrotech Therapeutics Pty Ltd, priority 2006, dated 2017).
